From ChEMBL document CHEMBL3421628, “Discovery of Intestinal Targeted TGR5 Agonists for the Treatment of Type 2 Diabetes” (J Med Chem, 2015) come the findings set out here.

Data set [1] in a line: Tmax in Sprague-Dawley rat at 5 mg/kg, po by LC-MS/MS method. Set-up: dose 5 mg/kg, route oral. In kind it is ADME, organism-based. The settings on record: in vivo.
Data set [2] relates to Rattus norvegicus. In words: Tmax in Sprague-Dawley rat assessed as 3-(2,5-Dichloro-4-((3-(4-cyclopropyl-1,2,3,4-tetrahydroquinoxaline-1-carbonyl)pyridin-4-yl)oxy)phenyl)propanoic acid level at 5 mg/kg, po by LC-MS/MS method. In kind it is ADME, organism-based. Also noted: dose 5 mg/kg, route oral. The settings on record: in vivo.
Data set [3] can be described thus: Cmax in Sprague-Dawley rat at 5 mg/kg, po by LC-MS/MS method. Set-up: dose 5 mg/kg, route oral. In kind it is ADME, organism-based. The settings on record: in vivo.
Data set [4] relates to Rattus norvegicus. In words: Cmax in Sprague-Dawley rat assessed as 3-(2,5-Dichloro-4-((3-(4-cyclopropyl-1,2,3,4-tetrahydroquinoxaline-1-carbonyl)pyridin-4-yl)oxy)phenyl)propanoic acid level at 5 mg/kg, po by LC-MS/MS method. Set-up: dose 5 mg/kg, route oral. Format: ADME, organism-based. The settings on record: in vivo.
A short description of data set [5]: AUC (0 to t) in Sprague-Dawley rat at 5 mg/kg, po by LC-MS/MS method. The settings on record: plasma. Also noted: dose 5 mg/kg, route oral. In kind it is ADME, organism-based.
Data set [6] relates to Rattus norvegicus. As to the kind of experiment: AUC (0 to t) in Sprague-Dawley rat assessed as 3-(2,5-Dichloro-4-((3-(4-cyclopropyl-1,2,3,4-tetrahydroquinoxaline-1-carbonyl)pyridin-4-yl)oxy)phenyl)propanoic acid level at 5 mg/kg, po by LC-MS/MS method. Also noted: dose 5 mg/kg, route oral. The settings on record: in vivo. Format: ADME, organism-based, Plasma.
The nature of data set [7]: AUC (0 to infinity) in Sprague-Dawley rat at 5 mg/kg, po by LC-MS/MS method. In kind it is ADME, organism-based. Also noted: time infinity, dose 5 mg/kg, route oral. The settings on record: plasma.
Data set [8] relates to Rattus norvegicus. In words: AUC (0 to infinity) in Sprague-Dawley rat assessed as 3-(2,5-Dichloro-4-((3-(4-cyclopropyl-1,2,3,4-tetrahydroquinoxaline-1-carbonyl)pyridin-4-yl)oxy)phenyl)propanoic acid level at 5 mg/kg, po by LC-MS/MS method. The settings on record: in vivo. Format: ADME, organism-based, Plasma. Also noted: time infinity, dose 5 mg/kg, route oral.
Data set [9] can be described thus: Mean residence time in Sprague-Dawley rat at 5 mg/kg, po by LC-MS/MS method. Format: ADME, organism-based. Also noted: dose 5 mg/kg, route oral. The settings on record: in vivo.
Data set [10] concerns Rattus norvegicus. In words: Mean residence time in Sprague-Dawley rat assessed as 3-(2,5-Dichloro-4-((3-(4-cyclopropyl-1,2,3,4-tetrahydroquinoxaline-1-carbonyl)pyridin-4-yl)oxy)phenyl)propanoic acid level at 5 mg/kg, po by LC-MS/MS method. The settings on record: in vivo. In kind it is ADME, organism-based. Also noted: dose 5 mg/kg, route oral.
Data set [11] in a line: Half life in Sprague-Dawley rat at 5 mg/kg, po by LC-MS/MS method. Format: ADME, organism-based. Also noted: dose 5 mg/kg, route oral. The settings on record: in vivo.
Data set [12] deals with Rattus norvegicus. In words: Half life in Sprague-Dawley rat assessed as 3-(2,5-Dichloro-4-((3-(4-cyclopropyl-1,2,3,4-tetrahydroquinoxaline-1-carbonyl)pyridin-4-yl)oxy)phenyl)propanoic acid level at 5 mg/kg, po by LC-MS/MS method. In kind it is ADME, organism-based. Set-up: dose 5 mg/kg, route oral. The settings on record: in vivo.
In data set [13] the test system is Rattus norvegicus. In words: Drug level in Sprague-Dawley rat at 20 mg/kg, po after 15 mins to 24 hrs by LC-MS/MS method. In kind it is ADME, organism-based. Also noted: dose 20 mg/kg, route oral. The settings on record: in vivo.
In data set [14] the test system is Rattus norvegicus. In words: Drug metabolism in Sprague-Dawley rat assessed as 3-(2,5-Dichloro-4-((3-(4-cyclopropyl-1,2,3,4-tetrahydroquinoxaline-1-carbonyl)pyridin-4-yl)oxy)phenyl)propanoic acid level at 20 mg/kg, po after 15 mins to 24 hrs by LC-MS/MS method. In kind it is ADME, organism-based. Also noted: dose 20 mg/kg, route oral. The settings on record: in vivo.

A short description of data set [15]: Drug level in ICR mouse gall bladder at 150 mg/kg, po after 4 hrs by LC-MS/MS method. In kind it is ADME, organism-based. Set-up: dose 150 mg/kg, route oral. The settings on record: in vivo.
Data set [16] can be described thus: Drug metabolism in ICR mouse gall bladder assessed as 3-(2,5-Dichloro-4-((3-(4-cyclopropyl-1,2,3,4-tetrahydroquinoxaline-1-carbonyl)pyridin-4-yl)oxy)phenyl)propanoic acid level at 150 mg/kg, po after 4 hrs by LC-MS/MS method. Format: ADME, organism-based. Set-up: dose 150 mg/kg, route oral. The settings on record: in vivo.
The nature of data set [17]: Drug level in ICR mouse plasma at 150 mg/kg, po after 2 hrs by LC-MS/MS method. Format: ADME, organism-based. Set-up: dose 150 mg/kg, route oral.
Data set [18] can be described thus: Drug level in ICR mouse plasma at 150 mg/kg, po after 2.5 hrs by LC-MS/MS method. Set-up: dose 150 mg/kg, route oral. In kind it is ADME, organism-based.
Data set [19] can be described thus: Drug level in ICR mouse plasma at 150 mg/kg, po after 3.5 hrs by LC-MS/MS method. Format: ADME, organism-based. Also noted: dose 150 mg/kg, route oral.
Data set [20] is described as follows: Drug level in ICR mouse bile at 150 mg/kg, po after 2 hrs by LC-MS/MS method. Also noted: dose 150 mg/kg, route oral. The settings on record: read-out: Drug uptake. Format: ADME, organism-based.
Data set [21] is described as follows: Drug level in ICR mouse bile at 150 mg/kg, po after 2.5 hrs by LC-MS/MS method. Format: ADME, organism-based. Set-up: dose 150 mg/kg, route oral. The settings on record: read-out: Drug uptake.
Data set [22] in a line: Drug level in ICR mouse bile at 150 mg/kg, po after 3.5 hrs by LC-MS/MS method. The settings on record: read-out: Drug uptake. In kind it is ADME, organism-based. Also noted: dose 150 mg/kg, route oral.
Data set [23] in a line: Drug level in ICR mouse gall bladder at 150 mg/kg, po after 2 hrs by LC-MS/MS method. Also noted: dose 150 mg/kg, route oral. Format: ADME, organism-based. The settings on record: in vivo.
Data set [24] in a line: Drug level in ICR mouse gall bladder at 150 mg/kg, po after 2.5 hrs by LC-MS/MS method. In kind it is ADME, organism-based. Also noted: dose 150 mg/kg, route oral. The settings on record: in vivo.
The nature of data set [25]: Drug level in ICR mouse gall bladder at 150 mg/kg, po after 3.5 hrs by LC-MS/MS method. Also noted: dose 150 mg/kg, route oral. The settings on record: in vivo. Format: ADME, organism-based.
Data set [26] can be described thus: in vitro. The settings on record: human, Caco-2.
A short description of data set [27]: in vitro. The settings on record: human, Caco-2. This is another data set of the same source.
Data set [28] can be described thus: in vitro. The settings on record: human, Caco-2. The source holds these as a separate data set.
Data set [29] is described as follows: in vitro. The settings on record: human, Caco-2. This is another data set of the same source.

Where only a bound is given, the exact number is not on record here.

Regarding `O=C(O)CNC(=O)CCc1cc(Cl)c(Oc2ccncc2C(=O)N2CCN(C3CC3)c3ccccc32)cc1Cl`, the Tmax in data set [1] turned out to be 0.44 h; with Rattus norvegicus [2] it was 3.5 h. Further, the maximum concentration (Cmax) in data set [3] is 0.0135 µg/mL; with Rattus norvegicus [4] it was 0.0155 µg/mL. Further, in [5], the AUC(0-t) came to 0.0239 µg·h/mL. For the same compound, in the data set with Rattus norvegicus [6], the AUCt came to 0.0849 µg·h/mL. Moreover, the AUC(0-inf) in data set [7] was found to be 0.0397 µg·h/mL. Besides, in the data set on Rattus norvegicus [8], the AUC was 0.241 µg·h/mL. Further, the MRT in [9] came to 2.37 h; with Rattus norvegicus [10], 5.47 h. The compound further had a half-life in data set [11] of 1.56 h. In the data set with Rattus norvegicus [12], the t1/2 came to 1.77 h.

Take `O=C(CCc1cc(Cl)c(Oc2ccncc2C(=O)N2CCN(C3CC3)c3ccccc32)cc1Cl)NCCOCCOCCOCCOCCOCCOCCOCCOCCNC(=O)CCc1cc(Cl)c(Oc2ccncc2C(=O)N2CCN(C3CC3)c3ccccc32)cc1Cl`: the Drug uptake with Rattus norvegicus [13] was less than 3 ng/mL; in data set [15] it was less than 3 ng; in data set [23], “Not Active”; in data set [24] it was “Not Active”; in data set [25] it was “Not Active”. The Drug metabolism entry (with Rattus norvegicus [14]; in [16]) was “metabolite_notdetected” throughout. Moreover, the concentration at 2 h worked out at 4.4 nM in data set [17] and 3.6 nM in data set [20]. In addition, the results for the concentration at 2.5 h in data set [18] and in [21] were 6.9 nM and 3.5 nM, respectively. The concentration at 3.5 h was 2.9 nM in [19] and 3.8 nM in data set [22]. Besides, the Papp A→B at 20 µM in “in vitro [26]” was 0.4 nm/s. Further, the recovery at 20 µM was found to be 99.5% in “in vitro [27]” and 91.2% in the data set “in vitro [29]”. In the data set “in vitro [28]”, this compound displayed a Papp B→A at 20 µM of 22.4 nm/s.

Consider `O=C(c1cnccc1Oc1cc(Cl)ccc1Cl)N1CCN(C2CC2)c2ccccc21`, for which the Papp A→B at 20 µM in the data set “in vitro [26]” came to 67.5 nm/s. Besides, the recovery at 20 µM came to 46.8% in the data set “in vitro [27]” and 69.4% in “in vitro [29]”. This compound displayed a Papp B→A at 20 µM in the data set “in vitro [28]” of 55.8 nm/s.

Turning to `C[C@H]1O[C@@H](O[C@H]2[C@@H](O)C[C@H](O[C@H]3[C@@H](O)C[C@H](O[C@H]4CC[C@@]5(C)[C@H](CC[C@@H]6[C@@H]5C[C@@H](O)[C@]5(C)[C@@H](C7=CC(=O)OC7)CC[C@]65O)C4)O[C@@H]3C)O[C@@H]2C)C[C@H](O)[C@@H]1O` [DIGOXIN], in “in vitro [26]”, the Papp A→B at 20 µM amounted to 1 nm/s. Besides, the recovery at 20 µM worked out at 101% in the data set “in vitro [27]” and 95.8% in the data set “in vitro [29]”. Moreover, the Papp B→A at 20 µM in the data set “in vitro [28]” came to 158 nm/s.
